Results published in patent US8153648B2, “Solid and crystalline dutasteride and processes for preparation thereof” (Gador S.A., priority 2008, dated 2012).

Legend:
[1] = intrinsic dissolving speed (VDI) study; type: physicochemical; conditions: for change of crystalline or polymorphous structure during the dissolving assay: SDS 2% in hydrochloric acid 0.1N 225 ml, detected in the study chart
Protocol: These study has been carried out using Lauril Sodium Sulphate SDS 2% in hydrochloric acid 0.1N 225 ml. as dissolvent. At the established experimental conditions, changes were seen depending on the crystalline or polymorphous structure present.

[2] = stability on exposure to different humidity conditions; type: physicochemical

## C[C@]12C=CC(=O)NC1CCC1C2CC[C@]2(C)C(C(=O)Nc3cc(C(F)(F)F)ccc3C(F)(F)F)CCC12 (stereo partly drawn) [Crystalline Form II of dutasteride, 17β-N-[2,5-bis(trifluoromethyl)phenyl]carbamoyl-4-aza-5-α-androst-1-en-3-one]
[1]
  change of crystalline or polymorphous structure during the dissolving assay: did not show any changes
[2]; 66% and 75% HR, 60-day period
  changes in the solid Form with XR study: No changes were observed
  stability when exposed to humidity: stable
[2]; after 60 days at 66% and 75% HR
  water content (KF), final sample: 2.1
[2]; before humidity exposure
  water content (KF), initial sample: 1.9

## C[C@]12C=CC(=O)NC1CCC1C2CC[C@]2(C)C(C(=O)Nc3cc(C(F)(F)F)ccc3C(F)(F)F)CCC12 (stereo partly drawn) [Crystalline Form III of dutasteride, 17β-N-[2,5-bis(trifluoromethyl)phenyl]carbamoyl-4-aza-5-α-androst-1-en-3-one]
[1]; Lauril Sodium Sulphate SDS 2% in hydrochloric acid 0.1N 225 ml as dissolvent
  intrinsic dissolving speed value (VDI): of the same magnitude of the crystalline forms described in the previous art

## C[C@]12C=CC(=O)NC1CCC1C2CC[C@]2(C)C(C(=O)Nc3cc(C(F)(F)F)ccc3C(F)(F)F)CCC12 (stereo partly drawn) [Form I, 17β-N-[2,5-bis(trifluoromethyl)phenyl]carbamoyl-4-aza-5-α-androst-1-en-3-one]
[1]
  change of crystalline or polymorphous structure during the dissolving assay: transformation into Form III

## C[C@]12C=CC(=O)NC1CCC1C2CC[C@]2(C)C(C(=O)Nc3cc(C(F)(F)F)ccc3C(F)(F)F)CCC12 (stereo partly drawn) [amorphous Form, 17β-N-[2,5-bis(trifluoromethyl)phenyl]carbamoyl-4-aza-5-α-androst-1-en-3-one]
[1]
  change of crystalline or polymorphous structure during the dissolving assay: did not show any changes
